Data reported in patent US20080227803A1, “Indolomorphinan Derivative Having Carboxy in 6'-Position” (SHIOONOGI & CO., LTD., a legal entity of Japan, priority 2004, published 2008).

Assays:
opioid δ receptor = biological target: T1, opioid δ receptor (Rattus norvegicus, UniProt P33533); experiment: Opioid receptor binding assay, [3H]-DADLE, rat cerebrum membrane fraction
T1 construct: Four hundred and eighty microliters of the rat cerebrum membrane fraction; from tissue; host or cells: rat (Slc:SD) cerebrum, crude membrane fraction
T1 sequence (P33533 whole entry): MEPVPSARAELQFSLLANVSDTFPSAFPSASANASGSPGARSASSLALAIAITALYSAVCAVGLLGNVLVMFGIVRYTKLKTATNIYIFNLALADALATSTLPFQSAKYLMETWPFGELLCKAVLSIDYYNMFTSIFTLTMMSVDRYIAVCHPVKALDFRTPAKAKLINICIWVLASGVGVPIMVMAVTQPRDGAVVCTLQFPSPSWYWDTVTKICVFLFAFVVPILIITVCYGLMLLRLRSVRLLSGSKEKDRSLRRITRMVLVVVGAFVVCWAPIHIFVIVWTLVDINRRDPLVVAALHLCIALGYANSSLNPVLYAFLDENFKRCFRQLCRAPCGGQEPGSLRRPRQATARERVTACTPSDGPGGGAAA

[1] = test system: retching and emesis induced by morphine; experiment: Effect on the retching and emesis induced by morphine in ferrets; assay type: in vivo; settings: for Duration / Occurrence times / Latent period: mean ± SE; for Latent period: no symptom = 30 min; for Number of individuals with the symptom/Number of cases: morphine 0.6 mg/kg s.c., 30 min observation
Method: About 30 minutes after feeding, ferrets were placed into observation cages and administered with the test compound. The test compound was dissolved into 15% Solutol (Registered trademark) HS15 containing 5% of N,N-dimethylacetamide and 5% of N-methyl-glucamine, and administered at 5 mg/kg. Thirty minutes after administration of the test compound solution, morphine at 0.6 mg/kg was subcutaneously administered in a solution volume of 1 mL/kg, and the retching and emesis symptoms were visually observed for 30 minutes after administration of morphine.
The frequency, latency (the period from the administration of morphine to the initial occurrence of emetic symptom) and duration (the period from the initial emesis to the final emesis) of retching (rhythmical contraction of abdomen), emesis (emetic behavior to discharge the vomit or similar behavior) and both the symptoms were tabulated.
Meanwhile, the latency of a case showing no emesis was assumed to be 30 minutes that were the longest time of observation, and a duration of less than 1 minute after the occurrence of emesis was expressed as 1 minute for the sake of convenience.

[2] = Retching + emesis, I-1 0.05 mg/kg
[3] = Retching + emesis, I-1 0.5 mg/kg

CC(C)(C)C(=O)OCOC(=O)c1ccc2c3c([nH]c2c1)[C@@H]1Oc2c(O)ccc4c2[C@@]12CCN(CC1CC1)[C@H](C4)[C@]2(O)C3 [Compound I-2]
Ki (opioid δ receptor): 1.7 nM

CCCC(=O)OCOC(=O)c1ccc2c3c([nH]c2c1)[C@@H]1Oc2c(O)ccc4c2[C@@]12CCN(CC1CC1)[C@H](C4)[C@]2(O)C3 [Compound I-4]
Ki (opioid δ receptor): 1.14 nM

CC(OC(=O)c1ccc2c3c([nH]c2c1)[C@@H]1Oc2c(O)ccc4c2[C@@]12CCN(CC1CC1)[C@H](C4)[C@]2(O)C3)OC(=O)C(C)C (stereo partly drawn) [Compound I-9]
Ki (opioid δ receptor): 1.25 nM

Cc1oc(=O)oc1COC(=O)c1ccc2c3c([nH]c2c1)[C@@H]1Oc2c(O)ccc4c2[C@@]12CCN(CC1CC1)[C@H](C4)[C@]2(O)C3 [Compound I-3]
Ki (opioid δ receptor): 1.06 nM

CC(=O)OC(C)OC(=O)c1ccc2c3c([nH]c2c1)[C@@H]1Oc2c(O)ccc4c2[C@@]12CCN(CC1CC1)[C@H](C4)[C@]2(O)C3 (stereo partly drawn) [Compound I-8]
Ki (opioid δ receptor): 1.38 nM

O=C(O)c1ccc2c3c([nH]c2c1)[C@@H]1Oc2c(O)ccc4c2[C@@]12CCN(CC1CC1)[C@H](C4)[C@]2(O)C3 [Compound I-1, 17-cyclopropylmethyl-6,7-didehydro-4,5α-epoxy-3,14β-dihydroxy-6′-carboxy-6,7-2′,3′-indolomorphinan]
Ki (opioid δ receptor): 0.62 nM
Duration ([1]; Emesis, I-1 0.05 mg/kg): 0 ± 0 min
Occurrence times ([1]; Emesis, I-1 0.05 mg/kg): 0 ± 0
Latent period ([1]; Emesis, I-1 0.05 mg/kg): 30 ± 0 min
Number of individuals with the symptom/Number of cases ([1]; Emesis, I-1 0.05 mg/kg): 0/6
Duration ([1]; Emesis, I-1 0.5 mg/kg): 0 ± 0 min
Occurrence times ([1]; Emesis, I-1 0.5 mg/kg): 0 ± 0
Latent period ([1]; Emesis, I-1 0.5 mg/kg): 30 ± 0 min
Number of individuals with the symptom/Number of cases ([1]; Emesis, I-1 0.5 mg/kg): 0/6
Duration ([1]; Emesis, I-1 5 mg/kg): 0 ± 0 min
Occurrence times ([1]; Emesis, I-1 5 mg/kg): 0 ± 0
Latent period ([1]; Emesis, I-1 5 mg/kg): 30 ± 0 min
Number of individuals with the symptom/Number of cases ([1]; Emesis, I-1 5 mg/kg): 0/6
Duration [1, 2]: 0 ± 0 min
Occurrence times [1, 2]: 0 ± 0
Latent period [1, 2]: 30 ± 0 min
Number of individuals with the symptom/Number of cases [1, 2]: 0/6
Duration [1, 3]: 0 ± 0 min
Occurrence times [1, 3]: 0 ± 0
Latent period [1, 3]: 30 ± 0 min
Number of individuals with the symptom/Number of cases [1, 3]: 0/6
Duration ([1]; Retching + emesis, I-1 5 mg/kg): 0 ± 0 min
Occurrence times ([1]; Retching + emesis, I-1 5 mg/kg): 0 ± 0
Latent period ([1]; Retching + emesis, I-1 5 mg/kg): 30 ± 0 min
Number of individuals with the symptom/Number of cases ([1]; Retching + emesis, I-1 5 mg/kg): 0/6
Duration ([1]; Retching, I-1 0.05 mg/kg): 0 ± 0 min
Occurrence times ([1]; Retching, I-1 0.05 mg/kg): 0 ± 0
Latent period ([1]; Retching, I-1 0.05 mg/kg): 30 ± 0 min
Number of individuals with the symptom/Number of cases ([1]; Retching, I-1 0.05 mg/kg): 0/6
Duration ([1]; Retching, I-1 0.5 mg/kg): 0 ± 0 min
Occurrence times ([1]; Retching, I-1 0.5 mg/kg): 0 ± 0
Latent period ([1]; Retching, I-1 0.5 mg/kg): 30 ± 0 min
Number of individuals with the symptom/Number of cases ([1]; Retching, I-1 0.5 mg/kg): 0/6
Duration ([1]; Retching, I-1 5 mg/kg): 0 ± 0 min
Occurrence times ([1]; Retching, I-1 5 mg/kg): 0 ± 0
Latent period ([1]; Retching, I-1 5 mg/kg): 30 ± 0 min
Number of individuals with the symptom/Number of cases ([1]; Retching, I-1 5 mg/kg): 0/6
